Measured values as given in ChEMBL document CHEMBL5625204, “Synthesis and pharmacodynamic evaluation of naphthalene derivatives against influenza A virus in vitro and in vivo” (Eur J Med Chem, 2023).
Active and inactive are the calls of the source. The calls are words filed in the database; no cut-off is given here.

What was measured:
[1] = tested on: Influenza A virus; test: Antiviral activity against Influenza A virus H1N1 (A/Weiss/43)-infected in BALB/c mouse assessed as reduction in lung tissue damage administered intranasally for 4 to 6 days starting from 3 hrs post-viral infection; assay type: functional, organism-based; conditions: dose 25-100 mg/kg/day, route nas, time 4-6 day
[2] = Selectivity index, ratio of CC50 for dog MDCK cells to EC50 for antiviral activity against Influenza A virus H1N1 (A/Weiss/43) infected in MDCK cells treated for 2 hrs during viral adsorption and measured after 72 hrs; assay type: toxicity, cell-based; conditions: read-out: Ratio CC50/EC50
[3] = tested on: Influenza A virus; test: Antiviral activity against Influenza A virus H1N1 (A/Weiss/43)-infected in BALB/c mouse assessed as reduction in viral NP protein expression in lungs at 25 to 100 mg/kg/day administered intranasally for 6 days starting from 3 hrs post-viral infection by immunohistochemistry; assay type: functional, organism-based; conditions: dose 25-100 mg/kg/day, route nas, time 6.0 day
[4] = tested on: Influenza A virus; test: Antiviral activity against Influenza A virus H1N1 (A/Weiss/43)-infected in BALB/c mouse assessed as reduction in viral M mRNA expression in lungs at 25 to 100 mg/kg/day administered intranasally for 2 to 6 days starting from 3 hrs post-viral infection by qRT-PCR analysis; assay type: functional, organism-based; conditions: dose 25-100 mg/kg/day, route nas, time 2-6 day
[5] = Cytotoxicity against dog MDCK cells assessed as reduction in cell viability incubated for 72 hrs by MTT assay; assay type: toxicity, cell-based, Canis lupus familiaris
[6] = tested on: Influenza A virus; test: Antiviral activity against Influenza A virus H1N1 (A/Weiss/43)-infected in BALB/c mouse assessed as reduction in lung index at 100 mg/kg/day administered intranasally for 6 days starting from 3 hrs post-viral infection; assay type: functional; conditions: 144 h, route nas, time 6 day
[7] = tested on: Influenza A virus; test: Antiviral activity against Influenza A virus infected in human A549 cells assessed as reduction of viral replication at 6.25 to 100 uM incubated for 72 hrs by TCID50 method; assay type: functional, organism-based; conditions: dose 6.25-100 µM
[8] = tested on: Influenza A virus; test: Inhibition of Influenza A virus replication infected in dog MDCK cells assessed as downregulation of virus NP protein expression by measuring decrease in green fluorescence intensity at 25 to 50 uM measured after 24 hrs by immunofluorescence analysis; assay type: functional, organism-based; conditions: dose 25-50 µM
[9] = tested on: Influenza A virus; test: Inhibition of Influenza A virus replication infected in dog MDCK cells assessed as downregulation of virus M2 protein expression by measuring decrease in green fluorescence intensity at 25 to 50 uM measured after 24 hrs by immunofluorescence analysis; assay type: functional, organism-based; conditions: dose 25-50 µM
[10] = tested on: Influenza A virus; test: Inhibition of Influenza A virus replication infected in human A549 cells assessed as downregulation of virus NP protein expression at 25 to 50 uM measured after 24 hrs by western blot analysis; assay type: functional, organism-based; conditions: dose 25-50 µM
[11] = tested on: Influenza A virus; test: Antiviral activity against Influenza A virus H1N1 (A/Weiss/43)-infected in dog MDCK cells assessed as reduction in oxidative stress by measuring proportion of normal cells at 25 uM treated at 2 hrs post-infection and measured after 36 hrs by DCFH-DA staining based flow cytometry (reference value: 69.4%); assay type: functional; design: scale not given: the % may be the effect or the level left
[12] = Toxicity in dog MDCK cells assessed as ROS production by measuring proportion of normal cells at 50 uM measured after 36 hrs by DCFH-DA staining based flow cytometry (reference value: 99.9%); assay type: cell-based, Canis lupus familiaris
[13] = tested on: Influenza A virus; test: Antiviral activity against Influenza A virus H1N1 infected in human A549 cells assessed as decrease in apoptosis by measuring decrease in Bax to Bcl-2 ratio at 25 to 50 uM measured after 24 hrs by western blot analysis; assay type: functional, organism-based; conditions: dose 25-50 µM
[14] = tested on: Influenza A virus; test: Antiviral activity against Influenza A virus H1N1 infected in dog MDCK cells assessed as decrease in apoptosis by measuring proportion of early apoptotic cells at 25 uM measured after 72 hrs by AnnexinV-FITC/PI staining based flow cytometry (reference value: 24.3%); assay type: functional; design: scale not given: the % may be the effect or the level left
[15] = tested on: Influenza A virus; test: Antiviral activity against Influenza A virus H1N1 infected in dog MDCK cells assessed as decrease in apoptosis by measuring proportion of late apoptotic cells at 50 uM measured after 72 hrs by AnnexinV-FITC/PI staining based flow cytometry (reference value: 10.3%); assay type: functional; design: scale not given: the % may be the effect or the level left
[16] = Toxicity in dog MDCK cells assessed as proportion of viable cells at 50 uM measured after 72 hrs by AnnexinV-FITC/PI staining based flow cytometry (reference value: 90.6%); assay type: cell-based, Canis lupus familiaris; conditions: read-out: Activity
[17] = Toxicity in dog MDCK cells assessed as proportion of necrotic cells at 50 uM measured after 72 hrs by AnnexinV-FITC/PI staining based flow cytometry (reference value: 1.4%); assay type: cell-based, Canis lupus familiaris
[18] = tested on: Influenza A virus; test: Antiviral activity against Influenza A virus H1N1 infected in human A549 cells assessed as decrease in apoptosis by measuring decrease in cleaved caspase-7 protein expression at 25 to 50 uM measured after 24 hrs by western blot analysis; assay type: functional, organism-based; conditions: dose 25-50 µM
[19] = tested on: Influenza A virus; test: Antiviral activity against Influenza A virus H1N1 infected in human A549 cells assessed as decrease in RIG-1 pathway related protein expression by measuring decrease in NF-kappaB p65 protein expression at 25 to 50 uM measured after 24 hrs by western blot analysis; assay type: functional, organism-based; conditions: dose 25-50 µM
[20] = tested on: Influenza A virus; test: Antiviral activity against Influenza A virus H1N1 infected in human A549 cells assessed as decrease in cytokine gene expression by measuring decrease in IL-1 beta gene expression at 25 to 50 uM measured after 24 hrs by qRT-PCR analysis; assay type: functional, organism-based; conditions: dose 25-50 µM
[21] = tested on: Influenza A virus; test: Antiviral activity against Influenza A virus H1N1 infected in human A549 cells assessed as decrease in cytokine gene expression by measuring decrease in IL-8 gene expression at 25 to 50 uM measured after 24 hrs by qRT-PCR analysis; assay type: functional, organism-based; conditions: dose 25-50 µM
[22] = tested on: Influenza A virus; test: Antiviral activity against Influenza A virus H1N1 infected in human A549 cells assessed as decrease in cytokine gene expression by measuring decrease in TNF-alpha gene expression at 25 to 50 uM measured after 24 hrs by qRT-PCR analysis; assay type: functional, organism-based; conditions: dose 25-50 µM
[23] = tested on: Influenza A virus; test: Antiviral activity against Influenza A virus H1N1 (A/Weiss/43)-infected in BALB/c mouse assessed as reduction in TLR-7 gene expression in lungs at 25 to 100 mg/kg/day administered intranasally for 6 days starting from 3 hrs post-viral infection by qRT-PCR analysis; assay type: functional, organism-based; conditions: dose 25-100 mg/kg/day, route nas, time 6.0 day
[24] = tested on: Influenza A virus; test: Antiviral activity against Influenza A virus H1N1 (A/Weiss/43)-infected in BALB/c mouse assessed as reduction in OAS1 gene expression in lungs at 25 to 100 mg/kg/day administered intranasally for 6 days starting from 3 hrs post-viral infection by qRT-PCR analysis; assay type: functional, organism-based; conditions: dose 25-100 mg/kg/day, route nas, time 6.0 day
[25] = tested on: Influenza A virus; test: Antiviral activity against Influenza A virus H1N1 (A/Weiss/43)-infected in BALB/c mouse assessed as reduction in IFN-beta gene expression in lungs at 25 to 100 mg/kg/day administered intranasally for 6 days starting from 3 hrs post-viral infection by qRT-PCR analysis; assay type: functional, organism-based; conditions: dose 25-100 mg/kg/day, route nas, time 6.0 day

O=[N+]([O-])c1ccc(S(=O)(=O)N(Cc2ccccc2)c2cccc3ccccc23)cc1
Activity [1]: Dose-Dependent Effect
selectivity ratio at 72 h [2]: > 131
Activity [3]: Active
Activity [4]: Active
CC50 at 72 h [5]: > 800 µM
inhibition in vivo at 100 mg/kg/day [6]: 43.3%
Activity [7]: Active
inhibition [8]: Active
inhibition [9]: Active
inhibition [10]: Active
Activity [11]: 87.7%
Activity [12]: 98.6%
inhibition [13]: Active
Activity [14]: 2.55%
Activity [15]: 1.09%
viability at 72 h, 50 µM [16]: 96.9%
Activity [17]: 0.82%
inhibition [18]: Active
inhibition [19]: Active
inhibition [20]: Active
inhibition [21]: Active
inhibition [22]: Active
Activity [23]: Active
Activity [24]: Active
Activity [25]: Active
